Laboratory results published in US8114880B2, “Piperidine or piperazine substituted tetrahydro-naphthalene-1-carboxylic acid MTP inhibiting compounds” (Janssen Pharmaceutica N.V., priority 2006, dated 2012).

Target: MTP (Homo sapiens, UniProt P55157)
Experiment: MTP assay (triglyceride transfer from donor to acceptor vesicles)
Type: biochemical
Conditions: MTP activity, percent triglyceride transfer from donor to acceptor vesicles, 37° C.
Method: MTP activity was measured using an assay similar to one described by J. R. Wetterau and D. B. Zilversmit in Chemistry and Physics of Lipids, 38, 205-222 (1985). To prepare the donor and acceptor vesicles, the appropriate lipids in chloroform were put into a glass test tube and dried under a stream of nitrogen. A buffer containing 15 mM Tris-HCl pH 7.5, 1 mM EDTA, 40 mM NaCl, 0.02% NaN3 (assay buffer) was added to the dried lipid. The mixture was vortexed briefly and the lipids were then allowed to hydrate for 20 minutes on ice. Vesicles were then prepared by bath sonication (Branson 2200) at room temperature for maximum 15 minutes. Butylated hydroxytoluene was included in all vesicle preparations at a concentration of 0.1%. The lipid transfer assay mixture contained donor vesicles (40 nmol phosphatidylcholine, 7.5 mol % of cardiolipin and 0.25 mol % glycerol tri [1-^14C]-oleate), acceptor vesicles (240 nmol phosphatidylcholine) and 5 mg BSA in a total volume of 675 μl in a 1.5 ml microcentrifuge tube. Test compounds were added dissolved in DMSO (0.13% final concentration). After 5 minutes of pre-incubation at 37° C., the reaction was started by the addition of MTP in 100 μl dialysis buffer. The reaction was stopped by the addition of 400 μl DEAE-52 cellulose pre-equilibrated in 15 mM Tris-HCl pH 7.5, 1 mM EDTA, 0.02% NaN3 (1:1, vol/vol). The mixture was agitated for 4 minutes and centrifuged for 2 minutes at maximum speed in an Eppendorf centrifuge (4° C.) to pellet the DEAE-52-bound donor vesicles. An aliquot of the supernatant containing the acceptor liposomes was counted and the [^14C]-counts were used to calculate the percent triglyceride transfer from donor to acceptor vesicles.

Sequence of MTP (P55157 19-894, species assumed): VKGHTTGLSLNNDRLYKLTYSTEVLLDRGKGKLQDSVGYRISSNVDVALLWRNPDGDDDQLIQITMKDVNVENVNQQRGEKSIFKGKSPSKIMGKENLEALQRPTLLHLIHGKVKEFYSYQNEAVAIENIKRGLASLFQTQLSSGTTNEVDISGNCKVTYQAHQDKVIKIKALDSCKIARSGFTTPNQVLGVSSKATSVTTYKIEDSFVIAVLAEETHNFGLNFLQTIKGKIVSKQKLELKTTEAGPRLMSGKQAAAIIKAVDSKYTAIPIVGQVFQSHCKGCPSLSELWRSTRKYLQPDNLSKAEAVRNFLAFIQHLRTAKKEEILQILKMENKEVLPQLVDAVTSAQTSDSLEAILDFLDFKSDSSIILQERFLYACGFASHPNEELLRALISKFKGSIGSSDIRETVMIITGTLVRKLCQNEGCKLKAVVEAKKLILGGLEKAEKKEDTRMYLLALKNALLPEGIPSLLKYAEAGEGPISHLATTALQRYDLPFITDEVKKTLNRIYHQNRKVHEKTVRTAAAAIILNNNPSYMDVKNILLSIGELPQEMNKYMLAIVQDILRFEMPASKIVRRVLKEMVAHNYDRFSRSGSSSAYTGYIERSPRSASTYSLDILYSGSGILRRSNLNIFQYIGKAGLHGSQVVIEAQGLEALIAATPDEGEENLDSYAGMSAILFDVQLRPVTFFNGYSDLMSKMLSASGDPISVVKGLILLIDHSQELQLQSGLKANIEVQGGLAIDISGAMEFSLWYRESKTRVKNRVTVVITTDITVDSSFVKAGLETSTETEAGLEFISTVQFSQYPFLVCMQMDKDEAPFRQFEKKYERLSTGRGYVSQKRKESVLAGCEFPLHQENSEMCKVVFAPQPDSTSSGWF
Sequence of MTP (P07237 18-508 partner, species assumed): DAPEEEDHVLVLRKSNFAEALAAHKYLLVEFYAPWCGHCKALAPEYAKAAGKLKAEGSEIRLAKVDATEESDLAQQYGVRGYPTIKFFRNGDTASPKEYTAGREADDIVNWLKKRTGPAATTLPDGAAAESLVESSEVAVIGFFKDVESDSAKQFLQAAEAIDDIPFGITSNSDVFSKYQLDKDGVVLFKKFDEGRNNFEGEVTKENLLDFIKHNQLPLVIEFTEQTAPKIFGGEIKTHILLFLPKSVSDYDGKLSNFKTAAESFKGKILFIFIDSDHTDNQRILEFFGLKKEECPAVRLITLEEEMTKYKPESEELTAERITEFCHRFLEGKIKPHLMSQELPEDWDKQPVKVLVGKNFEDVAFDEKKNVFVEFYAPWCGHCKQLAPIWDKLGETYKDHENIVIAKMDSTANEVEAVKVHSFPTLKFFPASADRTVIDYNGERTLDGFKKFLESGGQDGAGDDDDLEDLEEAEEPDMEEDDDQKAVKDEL

SMILES | IC50 [nM]
CC(C)[C@H](NC(=O)[C@@]1(c2ccccc2)CC[C@H](C(=O)N2CCC(NC(=O)c3cccn(C)c3=O)CC2)c2ccccc21)C(=O)OC(C)(C)C [Co. No. 165] | 506
CC(C)[C@@H](NC(=O)[C@@]1(c2ccccc2)CC[C@H](C(=O)N2CCC(NC(=O)c3cccn(C)c3=O)CC2)c2ccccc21)C(=O)OC(C)(C)C [Co. No. 166] | 755
CC(C)C[C@H](NC(=O)[C@@]1(c2ccccc2)CC[C@H](C(=O)N2CCC(NC(=O)c3cccn(C)c3=O)CC2)c2ccccc21)C(=O)OC(C)(C)C [Co. No. 167] | 793
Cn1cccc(C(=O)NC2CCN(C(=O)[C@H]3CC[C@@](C(=O)N[C@@H](COC(C)(C)C)C(=O)OC(C)(C)C)(c4ccccc4)c4ccccc43)CC2)c1=O [Co. No. 168] | 697
Cn1cccc(C(=O)NC2CCN(C(=O)[C@H]3CC[C@@](C(=O)N[C@@H](CC(=O)OC(C)(C)C)C(=O)OC(C)(C)C)(c4ccccc4)c4ccccc43)CC2)c1=O [Co. No. 169] | 1750
Cn1cccc(C(=O)NC2CCN(C(=O)[C@H]3CC[C@@](C(=O)N[C@@H](CCC(N)=O)C(=O)OC(C)(C)C)(c4ccccc4)c4ccccc43)CC2)c1=O [Co. No. 170] | > 10000
Cn1cccc(C(=O)NC2CCN(C(=O)[C@H]3CC[C@@](C(=O)N[C@@H](CCC(=O)OC(C)(C)C)C(=O)OC(C)(C)C)(c4ccccc4)c4ccccc43)CC2)c1=O [Co. No. 171] | 418
Cn1cccc(C(=O)NC2CCN(C(=O)[C@H]3CC[C@@](C(=O)N4CCC[C@H]4C(=O)OC(C)(C)C)(c4ccccc4)c4ccccc43)CC2)c1=O [Co. No. 173] | 3300
Cn1cccc(C(=O)NC2CCN(C(=O)[C@H]3CC[C@@](C(=O)N4CCC[C@@H]4C(=O)OC(C)(C)C)(c4ccccc4)c4ccccc43)CC2)c1=O [Co. No. 174] | 2730
Cn1cccc(C(=O)NC2CCN(C(=O)[C@H]3CC[C@@](C(=O)N4C[C@H](OC(C)(C)C)C[C@H]4C(=O)OC(C)(C)C)(c4ccccc4)c4ccccc43)CC2)c1=O [Co. No. 175] | 3720
Cn1cccc(C(=O)NC2CCN(C(=O)[C@H]3CC[C@@](C(=O)N[C@@H](C(=O)OC(C)(C)C)c4ccccc4)(c4ccccc4)c4ccccc43)CC2)c1=O [Co. No. 176] | 1880
Cn1cccc(C(=O)NC2CCN(C(=O)[C@H]3CC[C@@](C(=O)N[C@H](C(=O)OC(C)(C)C)c4ccccc4)(c4ccccc4)c4ccccc43)CC2)c1=O [Co. No. 177] | 1620
Cn1cccc(C(=O)NC2CCN(C(=O)[C@H]3CC[C@@](C(=O)N[C@@H](Cc4ccccc4)C(=O)OC(C)(C)C)(c4ccccc4)c4ccccc43)CC2)c1=O [Co. No. 178] | 1490
Cn1cccc(C(=O)NC2CCN(C(=O)[C@H]3CC[C@@](C(=O)N[C@H](Cc4ccccc4)C(=O)OC(C)(C)C)(c4ccccc4)c4ccccc43)CC2)c1=O [Co. No. 179] | 1320
Cn1cccc(C(=O)NC2CCN(C(=O)[C@H]3CC[C@@](C(=O)N[C@@H](Cc4ccc(O)cc4)C(=O)OC(C)(C)C)(c4ccccc4)c4ccccc43)CC2)c1=O [Co. No. 180] | 2670
Cn1cccc(C(=O)NC2CCN(C(=O)[C@H]3CC[C@@](C(=O)N[C@@H](CC(N)=O)C(=O)OC(C)(C)C)(c4ccccc4)c4ccccc43)CC2)c1=O [Co. No. 181] | > 10000
Cn1cccc(C(=O)NC2CCN(C(=O)[C@H]3CC[C@@](C(=O)NCC(=O)O)(c4ccccc4)c4ccccc43)CC2)c1=O [Co. No. 182] | > 10000
C[C@H](NC(=O)[C@@]1(c2ccccc2)CC[C@H](C(=O)N2CCC(NC(=O)c3cccn(C)c3=O)CC2)c2ccccc21)C(=O)O [Co. No. 183] | > 10000
C[C@@H](NC(=O)[C@@]1(c2ccccc2)CC[C@H](C(=O)N2CCC(NC(=O)c3cccn(C)c3=O)CC2)c2ccccc21)C(=O)O [Co. No. 184] | > 10000
CN(CC(=O)O)C(=O)[C@@]1(c2ccccc2)CC[C@H](C(=O)N2CCC(NC(=O)c3cccn(C)c3=O)CC2)c2ccccc21 [Co. No. 185] | > 10000
Cn1cccc(C(=O)NC2CCN(C(=O)[C@H]3CC[C@@](C(=O)NCCC(=O)O)(c4ccccc4)c4ccccc43)CC2)c1=O [Co. No. 186] | > 10000
CC(C)[C@H](NC(=O)[C@@]1(c2ccccc2)CC[C@H](C(=O)N2CCC(NC(=O)c3cccn(C)c3=O)CC2)c2ccccc21)C(=O)O [Co. No. 187] | > 10000
CC(C)[C@@H](NC(=O)[C@@]1(c2ccccc2)CC[C@H](C(=O)N2CCC(NC(=O)c3cccn(C)c3=O)CC2)c2ccccc21)C(=O)O [Co. No. 188] | > 10000
CC(C)C[C@H](NC(=O)[C@@]1(c2ccccc2)CC[C@H](C(=O)N2CCC(NC(=O)c3cccn(C)c3=O)CC2)c2ccccc21)C(=O)O [Co. No. 189] | > 10000

SMILES | IC50 [nM]
Cn1cccc(C(=O)NC2CCN(C(=O)[C@H]3CC[C@@](C(=O)NC(CCCCN)C(=O)O)(c4ccccc4)c4ccccc43)CC2)c1=O (some centres unmarked) [Co. No. 190] | > 10000
Cn1cccc(C(=O)NC2CCN(C(=O)[C@H]3CC[C@@](C(=O)N4CCC[C@@H]4C(=O)O)(c4ccccc4)c4ccccc43)CC2)c1=O [Co. No. 191] | > 10000
Cn1cccc(C(=O)NC2CCN(C(=O)[C@H]3CC[C@@](C(=O)N4C[C@H](O)C[C@H]4C(=O)O)(c4ccccc4)c4ccccc43)CC2)c1=O [Co. No. 192] | > 10000
Cn1cccc(C(=O)NC2CCN(C(=O)[C@H]3CC[C@@](C(=O)N[C@@H](C(=O)O)c4ccccc4)(c4ccccc4)c4ccccc43)CC2)c1=O [Co. No. 193] | > 10000
Cn1cccc(C(=O)NC2CCN(C(=O)[C@H]3CC[C@@](C(=O)N[C@H](C(=O)O)c4ccccc4)(c4ccccc4)c4ccccc43)CC2)c1=O [Co. No. 194] | > 10000
Cn1cccc(C(=O)NC2CCN(C(=O)[C@H]3CC[C@@](C(=O)N[C@@H](Cc4ccccc4)C(=O)O)(c4ccccc4)c4ccccc43)CC2)c1=O [Co. No. 195] | > 10000
Cn1cccc(C(=O)NC2CCN(C(=O)[C@H]3CC[C@@](C(=O)N[C@H](Cc4ccccc4)C(=O)O)(c4ccccc4)c4ccccc43)CC2)c1=O [Co. No. 196] | > 10000
Cn1cccc(C(=O)NC2CCN(C(=O)[C@H]3CC[C@@](C(=O)N[C@@H](Cc4ccc(O)cc4)C(=O)O)(c4ccccc4)c4ccccc43)CC2)c1=O [Co. No. 197] | > 10000
Cn1cccc(C(=O)NC2CCN(C(=O)[C@H]3CC[C@@](C(=O)N[C@@H](CC(N)=O)C(=O)O)(c4ccccc4)c4ccccc43)CC2)c1=O [Co. No. 198] | > 10000
COC(=O)CCCNC(=O)[C@@]1(c2ccccc2)CC[C@H](C(=O)N2CCC(NC(=O)c3cccn(C)c3=O)CC2)c2ccccc21 [Co. No. 224] | 1140
CC(C)OC(=O)CCCCNC(=O)[C@@]1(c2ccccc2)CC[C@H](C(=O)N2CCC(NC(=O)c3cccn(C)c3=O)CC2)c2ccccc21 [Co. No. 227] | 228
COC(=O)CCCCCNC(=O)[C@@]1(c2ccccc2)CC[C@H](C(=O)N2CCC(NC(=O)c3cccn(C)c3=O)CC2)c2ccccc21 [Co. No. 228] | 307
Cn1cccc(C(=O)NC2CCN(C(=O)[C@H]3CC[C@@](C(=O)NCCCCCC(=O)OC(C)(C)C)(c4ccccc4)c4ccccc43)CC2)c1=O [Co. No. 230] | 170
CCOC(=O)NCCCC[C@H](CC(=O)[C@@]1(c2ccccc2)CC[C@H](C(=O)N2CCC(NC(=O)c3cccn(C)c3=O)CC2)c2ccccc21)C(=O)OCC [Co. No. 232] | 3330
CCOC(=O)[C@H](CCCCNC(=O)OC(C)C)NC(=O)[C@@]1(c2ccccc2)CC[C@H](C(=O)N2CCC(NC(=O)c3cccn(C)c3=O)CC2)c2ccccc21 [Co. No. 234] | > 10000
COC(=O)[C@H](CCCCNC(=O)[C@@]1(c2ccccc2)CC[C@H](C(=O)N2CCC(NC(=O)c3cccn(C)c3=O)CC2)c2ccccc21)NC(C)=O [Co. No. 236] | 2670
COC(=O)[C@@H](CCCCNC(=O)OC(C)(C)C)NC(=O)[C@@]1(c2ccccc2)CC[C@H](C(=O)N2CCC(NC(=O)c3cccn(C)c3=O)CC2)c2ccccc21 [Co. No. 237] | 234
CCOC(=O)NCCCC[C@@H](NC(=O)[C@@]1(c2ccccc2)CC[C@H](C(=O)N2CCC(NC(=O)c3cccn(C)c3=O)CC2)c2ccccc21)C(=O)OC [Co. No. 238] | 2330
CCOC(=O)NCCCC[C@@H](NC(=O)[C@@]1(c2ccccc2)CC[C@H](C(=O)N2CCC(NC(=O)c3cccn(C)c3=O)CC2)c2ccccc21)C(=O)OCC [Co. No. 239] | 643
COC(=O)[C@@H](CCCCNC(=O)OC(C)C)NC(=O)[C@@]1(c2ccccc2)CC[C@H](C(=O)N2CCC(NC(=O)c3cccn(C)c3=O)CC2)c2ccccc21 [Co. No. 240] | 286
CCOC(=O)[C@@H](CCCCNC(=O)OC(C)C)NC(=O)[C@@]1(c2ccccc2)CC[C@H](C(=O)N2CCC(NC(=O)c3cccn(C)c3=O)CC2)c2ccccc21 [Co. No. 241] | 243
CC(C)OC(=O)NCCCC[C@@H](NC(=O)[C@@]1(c2ccccc2)CC[C@H](C(=O)N2CCC(NC(=O)c3cccn(C)c3=O)CC2)c2ccccc21)C(=O)OC(C)C [Co. No. 242] | 2360
CCOC(=O)[C@]1(c2ccccc2)CC[C@@H](C(=O)N2CCN(CC(=O)c3ccccc3OC)CC2)c2ccccc21 [Co. No. 259] | 63.1
